This is an account of results in US20010018071A1, “Oral 2-methyl-thieno-benzodiazepine formulation” (priority 1995, published 2001).

Series [1] can be described thus: Detection of radiolabelled compound in saliva. It is filed as in vivo. How it is done:
The anhydrous Form I 2-methyl-4-(4-methyl-1-piperazinyl)-10H-thieno-[2,3-b][1,5]benzodiazepine compound is effective over a wide dosage range, the actual dose administered being dependent on the condition being treated. For example, in the treatment of adult humans, dosages of from about 0.25 to 50 mg, preferably from 1 to 30 mg, and most preferably 1 to 20 mg per day may be used. A once a day dosage is normally sufficient, although divided doses may be administered. For treatment of central nervous system disorders, a dose range of from 1 to 30 mg, preferably 1 to 20 mg per day is suitable. Radiolabelled Form I 2-methyl-4-(4-methyl-1-piperazinyl)-10H-thieno-[2,3-b]

A short description of series [2]: Polymorph stability and transformation. The series is classed as physicochemical. The settings on record: for polymorph stability: anhydrous crystal forms. The text has this: Unfortunately, anhydrous Form II olanzapine is metastable and is therefore not well suited for commercial use in pharmaceutical formulations. Applicants have discovered that the pharmaceutically elegant anhydrous Form I olanzapine can be formulated in its substantially pure form as a stable solid oral preparation. Such formulation provides assurance of a uniform pharmaceutically elegant product substantially free of Form II impurity in order to comply with regulatory requirements.
Further certain excipients exacerbate physical instability. For commercial pharmaceutical development and compliance with regulatory guidelines, it is important to assure that marketed formulations comprise a uniform pharmaceutically elegant substantially pure anyhydrous Form I 2-methyl-4-(4-methyl-1-piperazinyl)-10H-thieno[2,3-b] [1,5] benzodiazepine compound as the active ingredient and most preferably the formulation is free from undesired discolorations.
(§1) The Form I 2-methyl-4-(4-methyl-1-piperazinyl)-10H-thieno[2,3-b]

Series [3] is described as follows: Discoloration of olanzapine on contact with excipients. The series is classed as physicochemical.
Description: Further, the discoloration was exacerbated by ambient air conditions, at elevated temperatures, and by moist environments.
as §1

In the case of `Cc1cc2c(s1)Nc1ccccc1N=C2N1CCN(C)CC1` [2-methyl-4-(4-methyl-1-piperazinyl)-10H-thieno-[2,3-b] [1,5]benzodiazepine], the detection in saliva entry in series [1] was “can be detected in the saliva”.

Take `Cc1cc2c(s1)Nc1ccccc1N=C2N1CCN(C)CC1` [Form I olanzapine, 2-methyl-4-(4-methyl-1-piperazinyl)-10H-thieno[2,3-b][1,5] benzodiazepine]: in series [2], the polymorph stability result is reported as “most stable known form”. For the same compound, the polymorphic conversion entry in series [2] (contact with methylene chloride) was “can be converted to the less desirable polymorphic forms”. As for `Cc1cc2c(s1)Nc1ccccc1N=C2N1CCN(C)CC1` [anhydrous Form II olanzapine, 2-methyl-4-(4-methyl-1-piperazinyl)-10H-thieno[2,3-b][1,5] benzodiazepine], in series [2], the polymorph stability result is reported as “metastable”.

With `Cc1cc2c(s1)Nc1ccccc1N=C2N1CCN(C)CC1` [olanzapine, 2-methyl-4-(4-methyl-1-piperazinyl)-10H-thieno[2,3-b][1,5] benzodiazepine], the discoloration entry in series [3] (contacted with certain excipients including powder blends) is recorded as “undergoes undesirable discoloration”; in series [3] (polyethylene glycol contact, particularly under moist conditions), “produces undesired discoloration”.
